In patent publication US10300071B2, “Compositions and methods for inhibition of mycobacteria” (priority 2014, dated 2019):
In brackets after ≈: the same amount, converted by molar mass. Where two headings read alike, the source gives them in different places.

Key:
[1] = system: Mtb strain mc^2-7000; assay: microbe, parasite or virus in culture; format: cell-based, Mycobacterium tuberculosis; conditions: 6 days incubation at 37° C., resazurin, read on the 7th day
[2] = biological target: Mtb AccD6 (Mycobacterium tuberculosis, UniProt P9WQH5); assay: biochemical; format: biochemical; conditions: for IC50: 300 μM malonyl-CoA, inhibitor 10 μM to 2000 μM; for inhibition at 20 µM: read-out: inhibition at 20 uM
Chain of Mtb AccD6 (P9WQH5 whole entry, looked up): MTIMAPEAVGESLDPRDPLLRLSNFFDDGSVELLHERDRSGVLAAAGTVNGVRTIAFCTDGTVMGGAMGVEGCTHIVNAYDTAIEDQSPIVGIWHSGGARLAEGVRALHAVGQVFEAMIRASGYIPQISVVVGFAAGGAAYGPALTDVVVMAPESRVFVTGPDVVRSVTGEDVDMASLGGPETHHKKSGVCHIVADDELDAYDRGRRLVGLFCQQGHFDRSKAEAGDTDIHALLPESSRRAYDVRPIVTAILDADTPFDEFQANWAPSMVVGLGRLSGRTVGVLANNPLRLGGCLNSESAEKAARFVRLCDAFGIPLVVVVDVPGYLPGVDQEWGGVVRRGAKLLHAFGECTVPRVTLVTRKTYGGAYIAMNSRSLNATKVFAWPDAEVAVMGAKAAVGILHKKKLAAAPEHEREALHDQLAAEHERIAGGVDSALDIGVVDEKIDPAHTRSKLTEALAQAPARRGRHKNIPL

[3] = system: S. cerevisiae
[4] = system: human fibroblast
[5] = Mycobacterium tuberculosis, 144 h, read-out: MIC

Row | Structure (SMILES) | MIC [1, 5] | IC50 ([2]; read-out: IC50) | concentrations at which not toxic, s. cerevisiae cytotoxicity [3] | concentrations at which not toxic, human fibroblast cytotoxicity [4] | IC50 [2] | MIC [1] | inhibition at 20 µM [2]
1 | CONC(=O)Cc1ccc(Oc2cnc3cc(Cl)ccc3n2)cc1 [NZ-301, 2-{4-[(6-chloroquinoxalin-2-yl)oxy]phenyl}-N-methoxyacetamide] | 12 µM (≈ 4.13 µg/mL) | 265 nM | ≥ 100 µM | ≥ 100 µM | – | – | –
2 | O=C(O)C(O)c1ccc(Oc2nc3ccc(Cl)cc3s2)cc1 (centres unmarked) [NZ-337, 2-{4-[(6-chloro-1,3-benzothiazol-2-yl)oxy]phenyl}-2-hydroxyacetic acid] | 25 µM (≈ 8.39 µg/mL) | 2300 nM | ≥ 100 µM | ≥ 100 µM | – | – | –
3 | COC(=O)Cc1ccc(Oc2nc3ccc(F)cc3s2)cc1 [NZ-294, methyl 2-{4-[(6-fluoro-1,3-benzothiazol-2-yl)oxy]phenyl}acetate] | 3 µM | 12500 nM | ≥ 100 µM | ≥ 100 µM | – | – | –
4 | COC(=O)C(O)c1ccc(Oc2nc3ccc(Cl)cc3s2)cc1 (centres unmarked) [NZ-336, methyl 2-{4-[(6-chloro-1,3-benzothiazol-2-yl)oxy]phenyl}-2-hydroxyacetate] | 12 µM (≈ 4.2 µg/mL) | – | 50 to 100 µM | 50 to 100 µM | – | – | –
5 | CC(C)NC(=O)Nc1ccc(Oc2ccc3cc(Cl)ccc3n2)cc1 [NZ-346, 1-{4-[(6-chloroquinolin-2-yl)oxy]phenyl}-3-(propan-2-yl)urea] | 50 µM (≈ 17.8 µg/mL) | 400 nM | – | ≥ 100 µM | – | – | –
6 | CC(C)NC(=O)Nc1ccc(Oc2nc3ccc(S(C)(=O)=O)cc3s2)cc1 [NZ-380, 1-{4-[(6-methanesulfonyl-1,3-benzothiazol-2-yl)oxy]phenyl}-3-(propan-2-yl)urea] | 3.4 µM (≈ 1.38 µg/mL) | – | ≥ 100 µM | ≥ 100 µM | Not Active | – | –
7 | CONC(=O)Cc1ccc(Oc2nc3ccc(Cl)cc3s2)cc1 [NZ-293, 2-{4-[(6-chloro-1,3-benzothiazol-2-yl)oxy]phenyl}-N-methoxyacetamide] | 3 µM (≈ 1.05 µg/mL) | 1000 nM | ≥ 100 µM | ≥ 100 µM | – | – | –
8 | O=C(O)Cn1ccc(Oc2nc3ccc(Cl)cc3s2)cc1=O [NZ-397, 2-{4-[(6-chloro-1,3-benzothiazol-2-yl)oxy]-2-oxo-1,2-dihydropyridin-1-yl}acetic acid] | – | 450 nM | ≥ 100 µM | ≥ 100 µM | – | Not Active | –
9 | CONC(=O)COc1ccc(Oc2cnc3cc(Cl)ccc3n2)cc1 [NZ-274, 2-{4-[(6-chloroquinoxalin-2-yl)oxy]phenoxy}-N-methoxyacetamide] | 0.173 µM (≈ 0.0622 µg/mL) | 3700 nM | ≥ 100 µM | ≥ 100 µM | – | – | –
10 | CC(C)NC(=O)Nc1ccc(Oc2nc3c(F)cccc3s2)cc1 [NZ-374, 1-{4-[(4-fluoro-1,3-benzothiazol-2-yl)oxy]phenyl}-3-(propan-2-yl)urea] | – | – | ≥ 100 µM | ≥ 100 µM | Not Active | Not Active | –
11 | COc1ccc2nc(Oc3ccc(NC(=O)NC(C)C)cc3)sc2c1 [NZ-361, 1-{4-[(6-methoxy-1,3-benzothiazol-2-yl)oxy]phenyl}-3-(propan-2-yl)urea] | 3.2 µM (≈ 1.14 µg/mL) | – | ≥ 100 µM | ≥ 100 µM | – | – | 19%
12 | CONC(=O)C(C)(C)Oc1ccc(Oc2nc3ccc(Cl)cc3s2)cc1 [NZ-319, 2-{4-[(6-chloro-1,3-benzothiazol-2-yl)oxy]phenoxy}-N-methoxy-2-methylpropanamide] | 6 µM (≈ 2.36 µg/mL) | 20000 nM | ≥ 100 µM | ≥ 100 µM | – | – | –
13 | CCOC(=O)[C@@H](C)Oc1ccc(Oc2nc3ccc(F)cc3s2)cc1 [NZ-251, ethyl (2R)-2-{4-[(6-fluoro-1,3-benzothiazol-2-yl)oxy]phenoxy}propanoate] | 0.23 µM (≈ 0.0831 µg/mL) | – | ≥ 100 µM | ≥ 100 µM | – | – | –
14 | CNC(=O)Cc1ccc(Oc2nc3cc(F)c(F)cc3s2)cc1O [NZ-401, 2-{4-[(5,6-difluoro-1,3-benzothiazol-2-yl)oxy]-2-hydroxyphenyl}-N-methylacetamide] | 0.54 µM (≈ 0.189 µg/mL) | 120 nM | ≥ 100 µM | ≥ 100 µM | – | – | –
15 | O=C(O)Cc1ccc(Oc2nc3ccc(F)cc3s2)cc1 [NZ-299, 2-{4-[(6-fluoro-1,3-benzothiazol-2-yl)oxy]phenyl}acetic acid] | 12 µM (≈ 3.64 µg/mL) | 324 nM | ≥ 100 µM | ≥ 100 µM | – | – | –
16 | CCOC(=O)c1ccc2nc(Oc3ccc(NC(=O)NC(C)C)cc3)sc2c1 [NZ-378, ethyl 2-(4-{[(propan-2-yl)carbamoyl]amino}phenoxy)-1,3-benzothiazole-6-carboxylate] | 2.2 µM (≈ 0.879 µg/mL) | – | ≥ 100 µM | ≥ 100 µM | Not Active | – | –
17 | COC(=O)Cn1ccc(Oc2nc3ccc(Cl)cc3s2)cc1=O [NZ-396, methyl 2-{4-[(6-chloro-1,3-benzothiazol-2-yl)oxy]-2-oxo-1,2-dihydropyridin-1-yl}acetate] | 6.19 to 8.6 µM | 11300 nM | ≥ 100 µM | ≥ 100 µM | – | – | –
18 | O=C(O)Cc1ccc(Oc2cnc3cc(Cl)ccc3n2)cc1 [NZ-298, 2-{4-[(6-chloroquinoxalin-2-yl)oxy]phenyl}acetic acid] | 25 µM (≈ 7.87 µg/mL) | 280 nM | ≥ 100 µM | ≥ 100 µM | – | – | –
19 | CC(C)(Oc1ccc(Oc2cnc3cc(Cl)ccc3n2)cc1)C(=O)O [NZ-315, 2-{4-[(6-chloroquinoxalin-2-yl)oxy]phenoxy}-2-methylpropanoic acid] | 25 µM (≈ 8.97 µg/mL) | 1700 nM | ≥ 100 µM | ≥ 100 µM | – | – | –
20 | CC(C)NC(=O)Nc1ccc(Oc2nc3cc(F)ccc3s2)cc1 [NZ-373, 1-{4-[(5-fluoro-1,3-benzothiazol-2-yl)oxy]phenyl}-3-(propan-2-yl)urea] | – | 1660 nM | ≥ 100 µM | ≥ 100 µM | – | Not Active | –
21 | COC(=O)COc1ccc(Oc2nc3ccc(F)cc3s2)cc1 [NZ-303, methyl 2-{4-[(6-fluoro-1,3-benzothiazol-2-yl)oxy]phenoxy}acetate] | 4.5 µM | – | – | ≥ 100 µM | – | – | 50%
22 | COC(=O)C(C)(C)Oc1ccc(Oc2nc3ccc(Cl)cc3s2)cc1 [NZ-317, methyl 2-{4-[(6-chloro-1,3-benzothiazol-2-yl)oxy]phenoxy}-2-methylpropanoate] | 6 µM (≈ 2.27 µg/mL) | – | ≥ 100 µM | ≥ 100 µM | – | – | –
23 | CC(C)NC(=O)Nc1ccc(Oc2nc3cc(Cl)c(Cl)cc3s2)cc1 [NZ-393, 1-{4-[(5,6-dichloro-1,3-benzothiazol-2-yl)oxy]phenyl}-3-(propan-2-yl)urea] | – | 5070 nM | ≥ 100 µM | ≥ 100 µM | – | – | –
24 | CN(C)C(=O)Nc1ccc(Oc2cnc3cc(Cl)ccc3n2)cc1 [NZ-343, 1-{4-[(6-chloroquinoxalin-2-yl)oxy]phenyl}-3,3-dimethylurea] | 25 µM (≈ 8.57 µg/mL) | 400 nM | – | ≥ 100 µM | – | – | –
25 | CONC(=O)C(C)(C)Oc1ccc(Oc2cnc3cc(Cl)ccc3n2)cc1 [NZ-316, 2-{4-[(6-chloroquinoxalin-2-yl)oxy]phenoxy}-N-methoxy-2-methylpropanamide] | 6 µM (≈ 2.33 µg/mL) | – | ≥ 100 µM | ≥ 100 µM | – | – | –
26 | CC(C)NC(=O)Nc1ccc(Oc2cnc3cc(F)ccc3n2)cc1 [NZ-345, 1-{4-[(6-fluoroquinoxalin-2-yl)oxy]phenyl}-3-(propan-2-yl)urea] | 25 µM (≈ 8.51 µg/mL) | 500 nM | – | ≥ 100 µM | – | – | –
27 | CONC(=O)C(O)c1ccc(Oc2nc3ccc(Cl)cc3s2)cc1 (centres unmarked) [NZ-338, 2-{4-[(6-chloro-1,3-benzothiazol-2-yl)oxy]phenyl}-2-hydroxy-N-methoxyacetamide] | 25 µM (≈ 9.12 µg/mL) | 7200 nM | – | ≥ 100 µM | – | – | –
28 | NCc1ccc(Oc2nc3ccc(Cl)cc3s2)cc1 [NZ-348, {4-[(6-chloro-1,3-benzothiazol-2-yl)oxy]phenyl}methanamine] | 2 µM (≈ 0.582 µg/mL) | – | 25 to 50 µM | – | Not Active | – | –
29 | CONC(=O)C(C)c1ccc(Oc2nc3ccc(OC)cc3s2)cc1 (centres unmarked) [NZ-335, N-methoxy-2-{4-[(6-methoxy-1,3-benzothiazol-2-yl)oxy]phenyl}propanamide] | 12 µM (≈ 4.3 µg/mL) | – | ≥ 100 µM | ≥ 100 µM | – | – | –
